From patent US20100266694A1, “Chitosan/Carbon Nanotube Composite Scaffolds for Drug Delivery” (priority 2009, published 2010)

What was measured:
Pseudomonas aeruginosa = assay: Turbidity test of amikacin eluates for bactericidal activity; format: cell-based; conditions: amikacin eluates from constructs against Pseudomonas aeruginosa
Procedure: (§1) Eluates taken from constructs of these different types were tested for bactericidal activity in turbidity tests against appropriate strains of bacteria: amikacin eluates against Pseudomonas aeruginosa and vancomycin eluates against Staphylococcus aureus. Eluates were added to trypticase soy broth in a 1:10 dilution. Broth was then inoculated with bacteria and then incubated overnight at 37° C. Absorbance of these solutions (turbidity) was used as an indicator of bacterial growth. Percent inhibition of bacterial growth is calculated from these measurements.

Staphylococcus aureus = assay: Turbidity test of vancomycin eluates for bactericidal activity; format: cell-based; conditions: vancomycin eluates from constructs against Staphylococcus aureus
Procedure: as §1

Structure (SMILES): NCC[C@H](O)C(=O)N[C@@H]1C[C@H](N)[C@@H](O[C@H]2O[C@H](CN)[C@@H](O)[C@H](O)[C@H]2O)[C@H](O)[C@H]1O[C@H]1O[C@H](CO)[C@@H](O)[C@H](N)[C@H]1O [amikacin]
- time up to which elution is inhibitory (Pseudomonas aeruginosa): up to 24 hours

Structure (SMILES): CN[C@H](CC(C)C)C(=O)N[C@H]1C(=O)N[C@@H](CC(N)=O)C(=O)N[C@H]2C(=O)N[C@H]3C(=O)N[C@H](C(=O)N[C@H](C(=O)O)c4cc(O)cc(O)c4-c4cc3ccc4O)[C@H](O)c3ccc(c(Cl)c3)Oc3cc2cc(c3O[C@@H]2O[C@H](CO)[C@@H](O)[C@H](O)[C@H]2O[C@H]2C[C@](C)(N)[C@H](O)[C@H](C)O2)Oc2ccc(cc2Cl)[C@H]1O [vancomycin]
- time up to which elution is inhibitory (Staphylococcus aureus): up to 48 hours
